Measured values published in ChEMBL document CHEMBL5500380, “Recent discovery and development of AXL inhibitors as antitumor agents” (Eur J Med Chem, 2024).

Legend:
[1] = target: T1, Tyrosine-protein kinase receptor UFO (Homo sapiens, UniProt P30530); test: Inhibition of AXL (unknown origin)
T1 sequence (P30530 whole entry): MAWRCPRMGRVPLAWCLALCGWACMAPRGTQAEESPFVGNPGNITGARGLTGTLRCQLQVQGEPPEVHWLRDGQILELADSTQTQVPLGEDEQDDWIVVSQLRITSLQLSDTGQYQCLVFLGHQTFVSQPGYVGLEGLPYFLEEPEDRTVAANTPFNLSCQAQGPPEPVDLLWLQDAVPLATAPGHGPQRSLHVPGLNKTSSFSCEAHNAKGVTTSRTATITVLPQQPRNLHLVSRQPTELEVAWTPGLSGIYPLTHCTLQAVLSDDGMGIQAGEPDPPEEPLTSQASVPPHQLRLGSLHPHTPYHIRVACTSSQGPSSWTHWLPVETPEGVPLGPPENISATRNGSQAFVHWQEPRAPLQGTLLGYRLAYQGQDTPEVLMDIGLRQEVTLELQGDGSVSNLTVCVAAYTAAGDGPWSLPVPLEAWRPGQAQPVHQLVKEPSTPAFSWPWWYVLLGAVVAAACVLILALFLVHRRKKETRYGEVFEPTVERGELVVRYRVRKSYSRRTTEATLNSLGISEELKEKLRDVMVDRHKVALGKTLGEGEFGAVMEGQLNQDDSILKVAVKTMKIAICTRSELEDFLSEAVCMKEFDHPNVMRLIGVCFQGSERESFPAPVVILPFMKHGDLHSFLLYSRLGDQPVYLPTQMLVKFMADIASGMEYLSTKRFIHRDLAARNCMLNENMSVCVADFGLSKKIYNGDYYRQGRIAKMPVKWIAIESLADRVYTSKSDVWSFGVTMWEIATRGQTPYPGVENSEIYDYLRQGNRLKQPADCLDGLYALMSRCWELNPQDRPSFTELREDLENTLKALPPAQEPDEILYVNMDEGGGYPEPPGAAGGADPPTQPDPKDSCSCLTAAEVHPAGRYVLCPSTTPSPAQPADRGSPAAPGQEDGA

[2] = target: T1, Tyrosine-protein kinase receptor UFO; test: Inhibition of AXL (unknown origin) by HTRF kinase assay
Aurora kinase B = Aurora kinase B (Homo sapiens, UniProt Q96GD4); test: Inhibition of AURORA-B (unknown origin)
Sequence of Aurora kinase B (Q96GD4 whole entry, the tested form may be a part): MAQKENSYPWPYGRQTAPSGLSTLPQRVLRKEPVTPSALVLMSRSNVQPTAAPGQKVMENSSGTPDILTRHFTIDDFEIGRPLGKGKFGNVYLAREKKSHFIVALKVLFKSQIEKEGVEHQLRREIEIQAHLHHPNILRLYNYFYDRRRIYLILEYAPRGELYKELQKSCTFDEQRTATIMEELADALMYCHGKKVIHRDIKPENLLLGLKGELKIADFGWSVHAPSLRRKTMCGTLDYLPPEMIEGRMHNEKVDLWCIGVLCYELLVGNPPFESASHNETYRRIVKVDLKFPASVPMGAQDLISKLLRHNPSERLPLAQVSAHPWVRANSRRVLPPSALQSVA

[3] = target: Epithelial discoidin domain-containing receptor 1 (Homo sapiens, UniProt Q08345); test: Inhibition of DDR1 (unknown origin)
Sequence of Epithelial discoidin domain-containing receptor 1 (Q08345 whole entry, the tested form may be a part): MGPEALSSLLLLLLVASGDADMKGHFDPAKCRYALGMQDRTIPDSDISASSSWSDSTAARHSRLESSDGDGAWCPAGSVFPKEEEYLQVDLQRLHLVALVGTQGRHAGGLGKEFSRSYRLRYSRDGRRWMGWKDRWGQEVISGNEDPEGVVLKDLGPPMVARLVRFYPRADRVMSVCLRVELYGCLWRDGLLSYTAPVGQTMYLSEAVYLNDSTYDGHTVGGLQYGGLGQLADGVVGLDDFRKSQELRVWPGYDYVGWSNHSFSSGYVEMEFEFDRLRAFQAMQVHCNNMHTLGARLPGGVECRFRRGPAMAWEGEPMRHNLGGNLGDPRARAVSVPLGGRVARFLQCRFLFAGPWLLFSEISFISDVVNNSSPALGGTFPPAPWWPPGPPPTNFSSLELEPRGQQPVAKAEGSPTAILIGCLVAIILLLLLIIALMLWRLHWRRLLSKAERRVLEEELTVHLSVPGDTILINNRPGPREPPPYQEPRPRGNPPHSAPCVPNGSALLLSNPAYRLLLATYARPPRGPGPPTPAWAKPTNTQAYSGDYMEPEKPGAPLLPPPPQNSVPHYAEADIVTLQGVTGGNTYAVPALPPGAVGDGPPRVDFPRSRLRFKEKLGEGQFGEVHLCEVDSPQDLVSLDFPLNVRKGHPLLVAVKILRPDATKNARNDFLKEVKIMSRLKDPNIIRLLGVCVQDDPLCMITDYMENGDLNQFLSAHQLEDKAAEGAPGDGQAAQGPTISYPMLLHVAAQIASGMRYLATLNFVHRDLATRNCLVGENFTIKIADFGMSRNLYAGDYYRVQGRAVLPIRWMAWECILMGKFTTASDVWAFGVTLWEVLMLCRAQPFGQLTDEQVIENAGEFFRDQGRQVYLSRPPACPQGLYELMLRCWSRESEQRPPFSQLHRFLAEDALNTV

Aurora kinase A = target: T2, Aurora kinase A (Homo sapiens, UniProt O14965); test: Inhibition of AURORA-A (unknown origin)
T2 sequence (O14965 whole entry): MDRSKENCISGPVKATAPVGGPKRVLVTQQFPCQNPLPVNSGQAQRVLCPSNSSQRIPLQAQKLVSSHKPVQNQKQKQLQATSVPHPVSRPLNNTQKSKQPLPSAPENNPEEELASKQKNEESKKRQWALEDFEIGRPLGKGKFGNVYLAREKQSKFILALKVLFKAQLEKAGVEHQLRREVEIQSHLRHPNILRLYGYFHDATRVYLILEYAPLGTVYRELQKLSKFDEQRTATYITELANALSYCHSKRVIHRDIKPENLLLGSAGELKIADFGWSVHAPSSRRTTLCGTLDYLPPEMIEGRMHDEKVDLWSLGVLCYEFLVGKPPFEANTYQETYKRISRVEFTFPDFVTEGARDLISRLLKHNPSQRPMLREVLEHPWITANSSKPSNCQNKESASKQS

[4] = target: Hepatocyte growth factor receptor (Homo sapiens) (UniProt P08581); test: Inhibition of c-MET (unknown origin) at 100 nM relative to control
Sequence of Hepatocyte growth factor receptor (Homo sapiens) (P08581 whole entry): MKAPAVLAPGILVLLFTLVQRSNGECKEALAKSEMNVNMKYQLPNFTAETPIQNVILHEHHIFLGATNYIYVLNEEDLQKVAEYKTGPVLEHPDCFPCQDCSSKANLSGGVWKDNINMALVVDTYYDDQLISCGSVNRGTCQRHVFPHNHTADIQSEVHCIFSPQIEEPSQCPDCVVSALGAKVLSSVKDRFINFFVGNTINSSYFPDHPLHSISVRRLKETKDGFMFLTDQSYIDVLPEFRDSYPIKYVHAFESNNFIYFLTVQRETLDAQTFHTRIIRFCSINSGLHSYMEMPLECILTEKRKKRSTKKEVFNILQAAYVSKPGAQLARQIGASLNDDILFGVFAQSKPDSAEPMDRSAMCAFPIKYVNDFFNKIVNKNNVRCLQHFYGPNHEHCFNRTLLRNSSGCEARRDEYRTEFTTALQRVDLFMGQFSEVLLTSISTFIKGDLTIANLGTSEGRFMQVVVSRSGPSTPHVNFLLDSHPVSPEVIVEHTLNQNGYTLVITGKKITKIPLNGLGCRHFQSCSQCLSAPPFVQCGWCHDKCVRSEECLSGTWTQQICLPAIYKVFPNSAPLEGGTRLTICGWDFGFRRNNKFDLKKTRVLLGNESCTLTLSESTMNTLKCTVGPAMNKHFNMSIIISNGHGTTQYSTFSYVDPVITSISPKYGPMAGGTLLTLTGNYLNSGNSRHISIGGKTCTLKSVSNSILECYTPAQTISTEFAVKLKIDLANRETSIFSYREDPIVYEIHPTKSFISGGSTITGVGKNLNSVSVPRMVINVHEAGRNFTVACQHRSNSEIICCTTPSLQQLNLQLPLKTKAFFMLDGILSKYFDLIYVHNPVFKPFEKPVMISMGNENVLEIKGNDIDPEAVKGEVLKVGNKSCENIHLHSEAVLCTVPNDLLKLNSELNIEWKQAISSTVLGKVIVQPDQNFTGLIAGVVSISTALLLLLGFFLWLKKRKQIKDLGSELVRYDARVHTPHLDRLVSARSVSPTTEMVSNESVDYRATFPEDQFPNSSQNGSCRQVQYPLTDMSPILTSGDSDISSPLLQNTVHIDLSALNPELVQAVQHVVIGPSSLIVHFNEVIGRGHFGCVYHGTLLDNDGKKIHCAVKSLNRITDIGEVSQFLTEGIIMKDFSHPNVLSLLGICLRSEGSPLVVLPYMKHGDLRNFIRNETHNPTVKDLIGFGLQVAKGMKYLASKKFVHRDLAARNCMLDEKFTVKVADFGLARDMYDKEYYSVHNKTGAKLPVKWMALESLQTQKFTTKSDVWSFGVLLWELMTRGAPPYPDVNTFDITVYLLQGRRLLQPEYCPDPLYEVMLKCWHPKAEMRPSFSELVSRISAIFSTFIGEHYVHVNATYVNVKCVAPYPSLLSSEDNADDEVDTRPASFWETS

[5] = target: T3, Tyrosine-protein kinase Mer (Homo sapiens) (UniProt Q12866); test: Inhibition of MER (unknown origin) at 100 nM relative to control
T3 sequence (whole entry): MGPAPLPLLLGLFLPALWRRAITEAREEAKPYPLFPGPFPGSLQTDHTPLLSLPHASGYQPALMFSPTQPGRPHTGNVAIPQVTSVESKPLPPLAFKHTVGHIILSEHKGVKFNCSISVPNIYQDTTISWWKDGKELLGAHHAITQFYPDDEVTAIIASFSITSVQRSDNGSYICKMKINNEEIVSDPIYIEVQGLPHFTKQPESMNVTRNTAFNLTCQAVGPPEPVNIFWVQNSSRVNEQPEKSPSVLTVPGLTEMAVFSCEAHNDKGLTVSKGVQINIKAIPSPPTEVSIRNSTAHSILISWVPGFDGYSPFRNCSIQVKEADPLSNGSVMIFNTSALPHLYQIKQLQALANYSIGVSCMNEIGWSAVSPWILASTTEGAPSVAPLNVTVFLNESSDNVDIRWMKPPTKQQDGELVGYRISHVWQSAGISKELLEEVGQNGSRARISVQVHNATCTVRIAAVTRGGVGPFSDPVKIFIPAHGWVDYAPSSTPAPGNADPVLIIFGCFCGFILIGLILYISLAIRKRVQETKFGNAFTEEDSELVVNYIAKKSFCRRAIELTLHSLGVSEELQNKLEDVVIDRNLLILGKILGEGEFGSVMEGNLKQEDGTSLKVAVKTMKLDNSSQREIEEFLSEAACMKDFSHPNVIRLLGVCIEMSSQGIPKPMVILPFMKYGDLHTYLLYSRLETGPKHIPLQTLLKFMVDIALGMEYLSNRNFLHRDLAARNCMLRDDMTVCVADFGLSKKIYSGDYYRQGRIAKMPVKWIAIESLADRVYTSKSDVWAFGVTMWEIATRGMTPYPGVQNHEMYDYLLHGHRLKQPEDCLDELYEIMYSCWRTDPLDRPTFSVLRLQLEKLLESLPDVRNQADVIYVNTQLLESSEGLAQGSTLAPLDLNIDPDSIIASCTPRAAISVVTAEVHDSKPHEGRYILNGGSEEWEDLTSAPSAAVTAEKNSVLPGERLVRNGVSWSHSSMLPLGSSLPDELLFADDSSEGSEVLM

[6] = target: T4, Tyrosine-protein kinase receptor TYRO3 (Homo sapiens) (UniProt Q06418); test: Inhibition of TYRO3 (unknown origin) at 100 nM relative to control
T4 sequence (whole entry): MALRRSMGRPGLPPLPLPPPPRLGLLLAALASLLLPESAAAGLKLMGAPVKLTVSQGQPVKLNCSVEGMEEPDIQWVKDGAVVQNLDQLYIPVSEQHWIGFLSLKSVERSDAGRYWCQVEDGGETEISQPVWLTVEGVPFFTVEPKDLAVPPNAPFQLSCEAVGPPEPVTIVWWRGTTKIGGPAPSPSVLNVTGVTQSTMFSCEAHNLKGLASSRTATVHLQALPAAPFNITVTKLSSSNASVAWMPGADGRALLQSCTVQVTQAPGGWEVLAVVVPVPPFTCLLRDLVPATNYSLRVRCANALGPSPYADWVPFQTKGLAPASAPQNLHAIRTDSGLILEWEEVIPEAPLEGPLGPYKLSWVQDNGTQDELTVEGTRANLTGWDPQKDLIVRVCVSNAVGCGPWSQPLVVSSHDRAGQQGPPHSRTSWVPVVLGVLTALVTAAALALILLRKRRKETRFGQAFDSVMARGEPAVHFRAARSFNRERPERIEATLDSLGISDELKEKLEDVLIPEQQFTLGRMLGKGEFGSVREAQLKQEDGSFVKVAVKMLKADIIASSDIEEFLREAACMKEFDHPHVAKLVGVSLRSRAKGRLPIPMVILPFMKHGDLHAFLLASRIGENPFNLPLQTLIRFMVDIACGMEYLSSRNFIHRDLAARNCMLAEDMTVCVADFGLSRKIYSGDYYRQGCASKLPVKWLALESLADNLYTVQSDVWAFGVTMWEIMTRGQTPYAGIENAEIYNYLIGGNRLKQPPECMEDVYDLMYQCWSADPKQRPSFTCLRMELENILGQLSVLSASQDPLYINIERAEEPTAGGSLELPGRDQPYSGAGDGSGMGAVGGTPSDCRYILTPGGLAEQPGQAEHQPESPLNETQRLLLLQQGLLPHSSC

`Nn1cc(-c2n[nH]c3cc(Cl)c(NC4CCNC4)cc23)cn1` (centres undefined) showed an IC50 [1] of 19 nM.
`COc1cc2nccc(Oc3ccc(NC(=O)c4cc5c(n(-c6ccccc6)c4=O)CCCC5=O)nc3)c2cc1OC` [TAMNORZATINIB] showed an IC50 [2] of 0.7 nM.
For `CCc1ccc2c(c1)c(=O)c(C(=O)Nc1ccc(Oc3ccnc4cc(OC)c(OC)cc34)c(F)c1)c(C)n2C`, the IC50 (Aurora kinase B) was 114 nM, the IC50 [3] was 22.2 nM and the IC50 [1] was 4 nM. It also gave an IC50 (Aurora kinase A) of 192 nM.
In the case of `CN1CCc2ccc(Nc3ncc(Cl)c(Nc4ccccc4S(=O)(=O)N(C)C)n3)cc2C1`, the IC50 [1] is reported as 2600 nM.
`COc1cc2nccc(Oc3ccc(NC(=O)c4c5n(n(-c6cc(F)ccc6F)c4=O)CCCC5)cc3F)c2cc1OC` was tested, and the IC50 [1] was 1.2 nM.
`O=C(Nc1ccc(Oc2ccnc3c2CCN3)c(F)c1)c1c[nH]cc(-c2ccc(F)cc2)c1=O` showed an IC50 [1] of 9 nM.
`COc1cc2ncnc(Oc3ccc(NC(=O)c4c5n(n(-c6cccc(F)c6)c4=O)CCCC5)cc3F)c2cc1OC` was tested, and the IC50 [1] was 5.9 nM.
Work on `COc1cc2nccc(Oc3ccc(NC(=O)c4c5n(n(-c6ccc(F)cc6)c4=O)CCCC5)cc3F)c2cc1OC` yielded an inhibition [4] of 98%, an inhibition [5] of 100% and an inhibition [6] of 71%. It also gave an IC50 [1] of 3.5 nM.
